From patent US7625872B2, “Branched immunomodulatory compounds and methods of using the same” (Dynavax Technologies Corporation, priority 2002, dated 2009)

Test system: human PBMC cells
Experiment: human PBMC assay: IFN-γ and IFN-α in cell-free medium by ELISA
Format: cell-based
Details: for IFN-α (pg/ml) 17240 / IFN-γ (pg/ml) 17240: donor 17240; for IFN-α (pg/ml) 17240 / IFN-γ (pg/ml) 17240 / IFN-α (pg/ml) 17241 / IFN-γ (pg/ml) 17241 / IFN-α (pg/ml) 17242 / IFN-γ (pg/ml) 17242 / IFN-α (pg/ml) 17243 / IFN-γ (pg/ml) 17243 / IFN-α (pg/ml) mean: test samples 20 μg/ml, '+ PLGA' = premixed with 100 μg/ml cPLGA; for IFN-α (pg/ml) 17240 / IFN-γ (pg/ml) 17240 / IFN-α (pg/ml) 17241 / IFN-γ (pg/ml) 17241 / IFN-α (pg/ml) 17242 / IFN-γ (pg/ml) 17242 / IFN-α (pg/ml) 17243 / IFN-γ (pg/ml) 17243 / IFN-α (pg/ml) mean / IFN-α +PLGA / IFN-γ +PLGA / IFN-α −PLGA / IFN-γ −PLGA: 24 hours; for IFN-α (pg/ml) 17240 / IFN-γ (pg/ml) 17240 / IFN-α (pg/ml) 17241 / IFN-γ (pg/ml) 17241 / IFN-α (pg/ml) 17242 / IFN-γ (pg/ml) 17242 / IFN-α (pg/ml) 17243 / IFN-γ (pg/ml) 17243: SAC 1/5000 dilution; for IFN-α (pg/ml) 17241 / IFN-γ (pg/ml) 17241: donor 17241; for IFN-α (pg/ml) 17242 / IFN-γ (pg/ml) 17242: donor 17242; for IFN-α (pg/ml) 17243 / IFN-γ (pg/ml) 17243: donor 17243; for IFN-α (pg/ml) mean: mean of 4 donors; for IFN-α +PLGA / IFN-γ +PLGA / IFN-α −PLGA / IFN-γ −PLGA: mean results (Table 4; unit in Table 3); for IFN-α +PLGA / IFN-γ +PLGA: 20 μg/ml formulated with 100 μg/ml cPLGA; for IFN-α −PLGA / IFN-γ −PLGA: compound alone, 20 μg/ml
Description: Peripheral blood was collected from volunteers by venipuncture using heparinized syringes. Blood was layered onto a FICOLL® (Amersham Pharmacia Biotech) cushion and centrifuged. PBMCs, located at the FICOLL® interface, were collected, then washed twice with cold phosphate buffered saline (PBS). The cells were resuspended and cultured in 48 well plates or 96-well plates at 2×10^6 cells/mL at 37° C. in RPMI 1640 with 10% heat-inactivated human AB serum plus 50 units/mL penicillin, 50 μg/mL streptomycin, 300 μg/mL glutamine, 1 mM sodium pyruvate, and 1×MEM non-essential amino acids (NEAA).
The cells were cultured in the absence of test samples, in the presence of test samples at 20 μg/ml (0.5 OD/ml), or in the presence of test samples at 20 μg/ml premixed with 100 μg/ml cationic poly(lactic acid, glycolic acid) microcarriers (cPLGA; see infra) (when used) for 24 hours. Cell-free medium was then collected from each well and assayed for IFN-γ and IFN-α concentrations. SAC (Pansorbin CalBiochem, 1/5000 dilution) was used as a positive control. SAC is Staph. aureus (cowan) cell material.
IFN-γ and IFN-α were assayed using CYTOSCREEN™ ELISA kits from BioSource International, Inc., according to the manufacturer's instructions.
Compound B07 (see Example 1, above) was tested for immunomodulatory activity in human PBMC cells as outlined in Example 9, above. For comparison purposes, the immunomodulatory activities of a variety of polynucleotides and chimeric molecules containing spacer moieties were also assayed. The syntheses and features of immunomodulatory chimeric molecules like compounds C-101, C-124, and C-125 are described in U.S. patent application Ser. No. 10/176,883 entitled, “Chimeric Immunomodulatory Compounds and Methods of Using the Same,” filed on Jun. 21, 2002, herein incorporated by reference. All nucleotide linkages and linkages between NAMs, spacer moieties and branch-point nucleosides in the listed compounds are phosphorothioate esters. HEG=hexaethylene glycol; symmetrical doubler=1,3-diamino-2-propanol; trebler=modified pentaerythritol; T-C6=2′-deoxyuridine; AHA=aminohexyl-3(E)-acrylamido linked at the C-5 position of 2′-deoxyuridine (see FIG. 1A). The compounds were each tested both alone and formulated with cPLGA (see Example 9, supra).

Substance	IFN-α (pg/ml) 17240 [pg/mL]	IFN-γ (pg/ml) 17240 [pg/mL]	IFN-α (pg/ml) 17241 [pg/mL]	IFN-γ (pg/ml) 17241 [pg/mL]	IFN-α (pg/ml) 17242 [pg/mL]	IFN-γ (pg/ml) 17242 [pg/mL]	IFN-α (pg/ml) 17243 [pg/mL]	IFN-γ (pg/ml) 17243 [pg/mL]	IFN-α (pg/ml) mean [pg/mL]	IFN-α +PLGA [pg/mL]	IFN-γ +PLGA [pg/mL]	IFN-α −PLGA [pg/mL]	IFN-γ −PLGA [pg/mL]	immunomodulatory activity compared with linear polynucleotide P-6 (PBMC assays, in words)	induction of IFN-γ and IFN-α compared with chimeric compounds (PBMC assays, in words)
5′-TGACTGTGAACCTTAGAGATGA-3′ (DNA TGACTGTGAACCTTAGAGATGA; DNA, all phosphorothioate, methylation of C not given here) [P-7]	30	35	30	127	30	10	30	58	30	30	34	30	58	–	–
5′-TGACTGTGAACGTTCGAGATGA-3′ [P-6]	86	172	30	158	57	47	30	77	51	295	568	51	113	–	–
(5-TCGACGT-3′-HEG)2-(T-C6)-AHA-HEG-5′-TCGACGT-3′ [B07]	1080	205	122	108	1039	30	201	140	610	7298	883	610	121	far superior immunomodulatory activity than the linear polynucleotide P-6	activity similar to the immunomodulatory chimeric compounds C-101, C-124, and C-125
(5′-TAGTCAT-3′-HEG)2-glycerol-HEG-5′-AACCTTC-3′ [M-100]	30	27	30	71	30	10	30	41	30	69	136	30	37	–	–
(5′-TAGTCAT-3′-HEG)2-symmetrical doubler-HEG-5′-TAGTCAT-3′ [M-101]	39	24	30	10	30	10	30	22	32	68	92	32	16	–	–
(5′-TAGTCAT-HEG)3-trebler-HEG-5′-TAGTCAT-3′ [M-102]	30	34	30	24	30	10	30	45	30	85	61	30	28	–	–
(5′-TCGACGT3′-HEG)2-(T-C6 brancher)-HEG-5′-TCGACGT-3′ [B07 (#2)]	1046	207	253	129	1365	48	520	158	796	8998	1016	796	135	–	–
(5′-TCGACGT-3′-HEG)2-glycerol-HEG-5′-TCGACGT-3′ [C-101]	2189	237	520	147	1071	73	293	142	–	5609	1323	–	150	–	–
(5′-TCGACGT-3′-HEG)2-symmetrical doubler-HEG-5′-TCGACGT-3′ [C-124]	1048	303	239	155	1186	65	249	142	680	7017	2661	680	166	–	–
(5′-TCGACGT-3′-HEG)3-trebler-HEG-5′-TCGACGT-3′ [C-125]	1519	253	67	136	1284	85	309	184	795	6348	889	795	165	–	–
